Laboratory results as given in US20130216590A1, “TOPICAL ANTIVIRAL FORMULATIONS FOR PREVENTION OF TRANSMISSION OF HSV-2” (priority 2010, published 2013).
Converted amounts (≈) assume the structure as drawn.

What was measured:
[1] = target: T1, HIV-1 RT (Human immunodeficiency virus type 1 group M subtype B, UniProt P04585); test: HIV-1 reverse transcriptase assay; assay type: biochemical
T1 construct: HSV-1 DNA Polymerase and HIV-1 Reverse Transcriptase Assay
Method: (§1) The reaction mixture (40 μl) for the HSV-1 DNA polymerase and HIV-1 RT assays contained 4 μl Premix (200 mM Tris.HCl, pH 7.5; 2 mM DTT; 30 mM MgCl2), 4 μl BSA (5 mg/ml), 1.6 μl activated calf thymus DNA (1.25 mg/ml), 0.8 μl dCTP (5 mM), 0.8 μl dTTP (5 mM), 0.8 μl dGTP (5 mM), 2 μl radiolabeled [^3H]dATP (1 mCi/ml) (3.3 μM), 18 μl H2O and 4 μl tenofovir-DP at different concentrations (i.e. 200, 20, 2, 0.2 μM). The reaction was started by the addition of 4 μl recombinant HSV-1 DNA polymerase (kindly provided by M. W. Wathen (Pfizer, Kalamazoo, Mich.)) or recombinant HIV-1 RT (in 20 mM Tris.HCl, pH 8.0; 1 mM DTT; 0.1 mM EDTA; 0.2 M NaCl; 40% glycerol), and the reaction mixture was incubated for 60 min (HSV-1 DNA polymerase) or 30 min (HIV-1 RT) at 37° C. Then, 1 ml ice-cold 5% TCA in 0.02 M Na4P2O7.10H2O was added to terminate the polymerisation reaction, after which the acid-insoluble precipitate (radiolabeled DNA) was captured onto Whatman glass fiber filters type GF/C (GE Healthcare UK Limited, Buckinghamshire, UK) and further washed with 5% TCA and ethanol to remove free radiolabeled dATP. Radioactivity was determined in a Perkin Elmer Tri-Carb 2810 TR liquid scintillation counter.

[2] = target: T2, HSV-1 DNA polymerase (Human herpesvirus 1, UniProt P04293); test: HSV-1 DNA polymerase assay; assay type: biochemical; conditions: activated calf thymus DNA primer/template; [2,8-3H]dATP competing substrate
T2 construct: gift of M. W. Wathen (Pfizer, Kalamazoo, Mich.)
T2 sequence (P04293 whole entry): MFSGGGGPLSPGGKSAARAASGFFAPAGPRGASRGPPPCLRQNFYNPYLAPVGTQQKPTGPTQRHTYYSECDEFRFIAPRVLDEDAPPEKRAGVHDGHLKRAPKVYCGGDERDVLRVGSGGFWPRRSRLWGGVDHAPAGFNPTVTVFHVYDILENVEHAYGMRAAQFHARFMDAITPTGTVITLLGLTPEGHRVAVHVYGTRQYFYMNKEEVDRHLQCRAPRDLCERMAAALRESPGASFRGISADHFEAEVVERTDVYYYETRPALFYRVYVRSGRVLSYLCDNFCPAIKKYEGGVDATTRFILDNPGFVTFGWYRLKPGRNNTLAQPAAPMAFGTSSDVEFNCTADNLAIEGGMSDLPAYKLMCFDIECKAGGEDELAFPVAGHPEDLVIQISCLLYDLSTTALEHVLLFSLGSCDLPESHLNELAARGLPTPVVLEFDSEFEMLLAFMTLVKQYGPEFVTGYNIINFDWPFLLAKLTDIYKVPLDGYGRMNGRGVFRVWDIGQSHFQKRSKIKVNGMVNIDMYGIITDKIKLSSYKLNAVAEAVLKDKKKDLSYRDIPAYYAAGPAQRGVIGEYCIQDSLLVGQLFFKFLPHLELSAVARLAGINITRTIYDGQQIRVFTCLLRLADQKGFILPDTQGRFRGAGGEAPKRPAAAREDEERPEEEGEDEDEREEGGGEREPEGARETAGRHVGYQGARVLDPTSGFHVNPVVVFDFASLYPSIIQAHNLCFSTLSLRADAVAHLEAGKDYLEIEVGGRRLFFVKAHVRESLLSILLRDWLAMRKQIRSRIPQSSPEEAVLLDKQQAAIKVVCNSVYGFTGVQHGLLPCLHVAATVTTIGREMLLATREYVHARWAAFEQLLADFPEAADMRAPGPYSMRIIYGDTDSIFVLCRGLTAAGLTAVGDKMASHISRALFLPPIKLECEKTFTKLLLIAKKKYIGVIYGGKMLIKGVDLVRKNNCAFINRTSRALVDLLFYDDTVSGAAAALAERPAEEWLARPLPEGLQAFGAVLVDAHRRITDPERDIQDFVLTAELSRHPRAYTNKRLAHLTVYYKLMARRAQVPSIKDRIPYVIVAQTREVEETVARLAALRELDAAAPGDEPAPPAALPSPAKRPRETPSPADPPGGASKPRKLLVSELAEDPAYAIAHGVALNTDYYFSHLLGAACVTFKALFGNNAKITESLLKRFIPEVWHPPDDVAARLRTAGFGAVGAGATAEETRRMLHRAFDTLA
Method: as §1

[3] = tested on: HSV-2; test: Herpes virus infection of primary monocyte/macrophage (M/M) cell cultures; assay type: cell-based
Method: Human peripheral blood mononuclear cells (PBMCs) were obtained from the blood of healthy seronegative donors by Ficoll-Hypaque density gradient centrifugation. […] Monocyte/macrophage (M/M) cells were separated by adherence onto plastic. […] African green monkey fibroblastoid kidney (Vero) cells highly sensitive to the cytopathic effect of HSV-2 were grown in RPMI medium supplemented with 10% heat inactivated FCS and were used in infectious virus titration assays.
Macrophage cultures were then infected with HSV-2 (100 CCID50) in the presence of the test compounds. After 2 hrs virus adsorption, the cultures were extensively washed to remove any residual virus particles. Fresh culture medium and compounds, at the indicated concentrations, were then added to the cultures. […] Appropriate positive (infected but not treated M/M) and mock-infected negative (uninfected and untreated M/M) controls were run for each experiment as well. All assays were performed in triplicate. […] Therefore, the potential inhibitory effect of the compounds on the replication of HSV-2 was evaluated 6 days after infection. The amount of infectious virus in the supernatants was determined by a classical limited dilution assay on Vero cell cultures. The titers of produced virus were calculated according to the Reed and Muench method and expressed as 50% tissue culture infective dose per ml (TCID50/ml).
The inhibition capacity was expressed in % and calculated considering as value 100 being the virus production in virus-infected untreated cultures.

[4] = tested on: HSV-1 and HSV-2; test: HSV cytopathic effect (CPE) reduction assay, laboratory strains, HEL cell monolayers and PHKs; assay type: cell-based, herpes simplex virus; conditions: laboratory HSV strains; HEL cell monolayers and PHKs; read-out: EC50, inhibition of virus-induced cytopathicity
[5] = tested on: HSV-2 (G); test: Organotypic epithelial raft cultures infected with HSV-2; assay type: cell-based; conditions: for activity against HSV replication in rafts compared with tenofovir: HSV-1 and HSV-2, FIGS. 3A and 3B; for concentration resulting in complete protection of the epithelial tissue: HSV-2, data not shown
Method: (§2) For the preparation of epidermal equivalents, a collagen matrix solution was made with collagen mixed on ice with 10-fold concentrated HAM's F12 media, 10-fold reconstitution buffer and Swiss 3T3 J2 fibroblasts. One milliliter of the collagen matrix solution was poured into the wells of 24-well microtiter plates. After gel equilibration with 1 ml of growth medium overnight at 37° C., 2.5×10^5 PHK cells were seeded on the top of the gels and maintained submerged for 24-48 hours. The collagen rafts were raised and placed onto stainless-steel grids at the interface between air and liquid culture medium. The growth medium was a mixture of ⅓ HAM F12 and ⅔ Dulbecco's modified Eagle's medium, with the same supplements as used for the Keratinocyte-SFM. Epithelial cells were allowed to stratify, the medium being replaced every 2-3 days. For the evaluation of the antiviral effects of the compounds in the raft system, two series of rafts were run in parallel, one for histological examination and the other one for quantification of viral production by a plaque reduction assay. Rafts were infected with 5,000 PFU of HSV-1 (KOS) or […] strains after 10 days post-lifting and then the medium was replaced by medium containing different dilutions of the compounds. The growth medium containing the different concentrations of the compounds was changed two days later and 3 days later (after 15 days of differentiation), one series of rafts was fixed in 10% buffered formalin, embedded in paraffin and stained with hematoxylin and eosin for histological evaluation. Another series of rafts was used to quantify virus production. For that purpose, each raft was frozen in 3 ml phosphate buffer saline (PBS) and thawed to release the virus from the infected epithelium. Supernatants were clarified by centrifugation at 1,800 rpm and titrated by a plaque assay in HEL cell cultures. Virus production in each raft was then calculated. Two rafts were used for each drug concentration to determine the effects of the compounds on virus yield.

[6] = tested on: HSV-1 (KOS); test: Organotypic epithelial raft cultures infected with HSV-1; assay type: cell-based; conditions: reference HSV-1 laboratory strain
Method: as §2

[7] = tested on: organotypic raft cultures of keratinocytes; test: Toxic effects in organotypic epithelial raft cultures; assay type: cell-based; conditions: highest concentration, 50 μg/ml
Method: as §2

[8] = tested on: HSV-1 (Kos strain); test: In vivo antiviral activity in HSV-1-infected NMRI athymic nude mice
Method: (§3) Adult NMRI athymic nude mice (weighing ˜20 g) were scarified on the lumbosacral area over a surface of about 1 cm^2. Mice were inoculated with 5×10^3 PFU of HSV-1 (Kos strain) or 5×10^2 of HSV-2 (G strain) in 50 μL per mouse. […] In each experiment, a group of animals treated with a placebo formulation that was the same as the test formulation without drug was included as a negative control. […] The day of virus inoculation was always considered as day 0. All animal procedures were approved by the K.U. Leuven Animal Care Committee. Development of lesions and mortality were recorded over a one month period. Animals were euthanized when more than 30% loss in body weight or development of paralysis occurred. Survival rates were estimated according to the Kaplan-Meir method and were compared using the log-rank test (Mantel-Cox) test (GraphPad Prism).

[9] = tested on: HSV-2 (G strain); test: In vivo antiviral activity in HSV-2-infected NMRI athymic nude mice; conditions: for protection against viral-induced morbidity and mortality: 1% in DMSO (FIG. 5B)
Method: as §3

[10] = tested on: HSV-1 and HSV-2 clinical isolates; test: organism not typed; assay type: cell-based, herpes simplex virus; conditions: for antiherpetic activity against thymidine kinase-deficient strains compared with wild-type: clinical isolates, HEL
[11] = tested on: HSV-2 strain G (HSV-2G); test: Human ex vivo tonsillar tissue, HSV DNA release by real-time PCR; assay type: cell-based; conditions: 33 μg/ml; tissues from two donors; data not shown
Method: For each experimental condition 16 tissue blocks were immersed in 500 μl of a HSV-2 (strain G) suspension for 2 hours at 37° C., washed three times with PBS and then placed on the gelfoam rafts. Tenofovir was added during the infection and replenished at each culture medium change. Herpes simplex viral replication was evaluated by the release of viral DNA into the culture medium as measured by quantitative real-time PCR (17). HIV-1 replication was evaluated by the release of p24 capsid antigen using a bead-based assay (18).

C[C@H](Cn1cnc2c(N)ncnc21)OCP(=O)(O)OP(=O)(O)OP(=O)(O)O [Tenofovir-DP, (R)-(1-(6-amino-9H-purin-9-yl)propan-2-yloxy)methylphosphonic diphosphoric anhydride]
IC50 [1]: 4300 nM
IC50 [2]: 1300 nM

Nc1nc2c(ncn2COCCO)c(=O)[nH]1 [acyclovir, 9-(2-hydroxyethoxymethyl)guanine]
virus released in the supernatants and visible cytopathicity ([3]; concentrations equal to, or higher than 0.008 μg/ml): full suppression of virus released in the supernatants and no visible cytopathicity

Nc1ncnc2c1ncn2CCOCP(=O)(O)O [adefovir, 9-[2-(phosphonylmethoxyethyl)adenine]]
EC50 [4]: 3.6 to 13 µg/mL (≈ 13.2 to 47.6 µM)
HSV titer in supernatants ([3]; 0.4 μg/ml): 5.4×10^3 TCID50/ml
visible CPE ([3]; 0.4 μg/ml): 45%
HSV titer in supernatants ([3]; 1 μg/ml): 8.5×10^2 TCID50/ml
visible CPE ([3]; 1 μg/ml): 5%
viral particles in the supernatants and visible CPE ([3]; drug concentrations between 500 and 5 μg/ml): neither viral particles in the supernatants nor visible CPE were found
activity against HSV replication in rafts compared with tenofovir [5]: more active against HSV replication than tenofovir
concentration resulting in complete protection of the epithelial tissue [5]: ≥ 2 µg/mL
concentration giving complete protection from virus-induced cytopathic effect [6]: 2 µg/mL
toxic effects (increase in number of dead cells or alteration of differentiation) [7]: No toxic effects
survival ([8]; 1% in DMSO): 80%
skin lesions in mice that died ([8]; 1% in DMSO formulation): died without developing skin lesions
survival ([8]; 1% in gel, data not shown): 100%
protection against viral-induced morbidity and mortality [9]: 80%
appearance of lesions and subsequent death ([9]; formulated in the gel at 1%): significant delay in the appearance of lesions and subsequent death

O=c1[nH]c(=O)n([C@H]2C[C@H](O)[C@@H](CO)O2)cc1/C=C/Br [brivudin, RE)-5-(2-bromovinyl)-1(-D-2′-deoxyribofuranos-1-yl-uracil]
antiherpetic activity against thymidine kinase-deficient strains compared with wild-type [10]: lost their antiherpetic activity

Nc1ccn(C[C@@H](CO)OCP(=O)(O)O)c(=O)n1 [cidofovir, (S)-1-(3-hydroxy-2-phosphonylmethoxypropyl)cytosine]
EC50 [4]: 0.63 to 4.4 µg/mL (≈ 2.26 to 15.8 µM)
EC50 ([10]; Fibroblast, read-out: mean EC50 values (range over isolate groups)): 0.35 to 0.67 µg/mL (≈ 1.25 to 2.4 µM)
activity against HSV replication in rafts compared with tenofovir [5]: more active against HSV replication than tenofovir
concentration resulting in complete protection of the epithelial tissue [5]: 0.2 µg/mL
concentration giving complete protection from virus-induced cytopathic effect [6]: ≥ 0.5 µg/mL
toxic effects (increase in number of dead cells or alteration of differentiation) [7]: No toxic effects
protection against virus-induced morbidity and mortality ([8]; either the DMSO or the gel formulation): completely protected
protection against viral-induced morbidity and mortality [9]: 100%
protection against HSV-2-induced morbidity and mortality ([9]; formulated in gel): 80%

Nc1nc2c(ncn2COC(CO)CO)c(=O)[nH]1 [ganciclovir, 9-(1,3-dihydroxy-2-propoxymethyl)guanine]
antiherpetic activity against thymidine kinase-deficient strains compared with wild-type [10]: lost their antiherpetic activity

Nc1ccn([C@@H]2CS[C@H](CO)O2)c(=O)n1 [lamivudine]
effect on HSV-2G replication compared to untreated donor-matched tissues [11]: no effect

Nc1nc2c(ncn2CCC(CO)CO)c(=O)[nH]1 [penciclovir, 9-(4-hydroxy-3-hydroxymethylbut-1-yl)guanine]
antiherpetic activity against thymidine kinase-deficient strains compared with wild-type [10]: lost their antiherpetic activity
